Read-outs that look alike come from different tables or passages of the source.
Assays:
[1] = target: T1, rat FAAH (Rattus norvegicus, UniProt P97612); experiment: Assay Method 2: FAAH assay, hydrolysis of 3H-anandamide by homogenate of SK-N-MC cells transfected with rat FAAH; assay type: biochemical; settings: T84 or transfected SK-N-MC cell homogenate, 3H-AEA tracer 80 nM, rt 1 h, pH 9
T1 construct: expressed in transfected cells
T1 sequence (P97612 1-579): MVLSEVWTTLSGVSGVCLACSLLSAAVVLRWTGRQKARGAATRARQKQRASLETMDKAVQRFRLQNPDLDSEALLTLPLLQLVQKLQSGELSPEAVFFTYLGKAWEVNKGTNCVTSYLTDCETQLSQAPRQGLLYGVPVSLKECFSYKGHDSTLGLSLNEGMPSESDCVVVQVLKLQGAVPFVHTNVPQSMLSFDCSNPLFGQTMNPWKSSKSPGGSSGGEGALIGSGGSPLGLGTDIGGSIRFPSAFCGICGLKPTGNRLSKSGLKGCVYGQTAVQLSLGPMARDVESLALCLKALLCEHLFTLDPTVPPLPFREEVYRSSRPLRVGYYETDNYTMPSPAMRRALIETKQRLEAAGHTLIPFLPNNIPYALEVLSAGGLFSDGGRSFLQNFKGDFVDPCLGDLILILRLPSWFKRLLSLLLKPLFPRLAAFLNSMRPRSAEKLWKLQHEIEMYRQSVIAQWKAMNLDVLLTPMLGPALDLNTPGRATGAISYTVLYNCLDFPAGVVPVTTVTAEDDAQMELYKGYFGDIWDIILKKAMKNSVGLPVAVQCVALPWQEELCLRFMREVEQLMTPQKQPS
Protocol: A. Transfection of Cells with Rat FAAH A 10-cm tissue culture dish with a confluent monolayer of SK-N-MC cells was split 2 days (d) prior to transfection. Using sterile technique, the media was removed and the cells were detached from the dish by the addition of trypsin. One fifth of the cells were then placed onto a new 10-cm dish. Cells were grown in a 37° C. incubator with 5% CO2 in Minimal Essential Media Eagle with 10% Fetal Bovine Serum. After 2 d, cells were approximately 80% confluent. These cells were removed from the dish with trypsin and pelleted in a clinical centrifuge. The pellet was re-suspended in 400 μL complete media and transferred to an electroporation cuvette with a 0.4 cm gap between the electrodes. Supercoiled rat FAAH cDNA (1 μg) was added to the cells and mixed. The voltage for the electroporation was set at 0.25 kV, and the capacitance was set at 960 μF. After electroporation, the cells were diluted into complete media (10 mL) and plated onto four 10-cm dishes. Because of the variability in the efficiency of electroporation, four different concentrations of cells were plated. The ratios used were 1:20, 1:10, and 1:5, with the remainder of the cells being added to the fourth dish. The cells were allowed to recover for 24 h before adding the selection media (complete media with 600 μg/mL G418). After 10 d, dishes were analyzed for surviving colonies of cells. Dishes with well-isolated colonies were used. Cells from individual colonies were isolated and tested. […] B. FAAH Assay […] The reaction mixture was incubated at rt for 1 h. During the incubation, 96-well Multiscreen filter plates (catalog number MAFCNOB50; Millipore, Bedford, Mass., USA) were loaded with 25 μL of activated charcoal (Multiscreen column loader, catalog number MACL09625, Millipore) and washed once with 100 μL of MeOH. Also during the incubation, 96-well DYNEX MicroLite plates (catalog number NL510410) were loaded with 100 μL of MicroScint40 (catalog number 6013641, Packard Bioscience, Meriden, Conn., USA). After the 1 h incubation, 60 μL of the reaction mixture were transferred to the charcoal plates, which were then assembled on top of the DYNEX plates using Centrifuge Alignment Frames (catalog number MACF09604, Millipore). The unbound labeled ethanolamine was centrifuged through to the bottom plate (5 min at 2000 rpm), which was preloaded with the scintillant, as described above. The plates were sealed and left at rt for 1 h before counting on a Hewlett Packard TopCount.

[2] = target: T2, human FAAH (Homo sapiens, UniProt O00519); experiment: Assay Method 1: FAAH assay, hydrolysis of 3H-anandamide by homogenate of SK-N-MC cells transfected with human FAAH; assay type: biochemical
T2 construct: expressed in transfected cells
T2 sequence (O00519 1-579): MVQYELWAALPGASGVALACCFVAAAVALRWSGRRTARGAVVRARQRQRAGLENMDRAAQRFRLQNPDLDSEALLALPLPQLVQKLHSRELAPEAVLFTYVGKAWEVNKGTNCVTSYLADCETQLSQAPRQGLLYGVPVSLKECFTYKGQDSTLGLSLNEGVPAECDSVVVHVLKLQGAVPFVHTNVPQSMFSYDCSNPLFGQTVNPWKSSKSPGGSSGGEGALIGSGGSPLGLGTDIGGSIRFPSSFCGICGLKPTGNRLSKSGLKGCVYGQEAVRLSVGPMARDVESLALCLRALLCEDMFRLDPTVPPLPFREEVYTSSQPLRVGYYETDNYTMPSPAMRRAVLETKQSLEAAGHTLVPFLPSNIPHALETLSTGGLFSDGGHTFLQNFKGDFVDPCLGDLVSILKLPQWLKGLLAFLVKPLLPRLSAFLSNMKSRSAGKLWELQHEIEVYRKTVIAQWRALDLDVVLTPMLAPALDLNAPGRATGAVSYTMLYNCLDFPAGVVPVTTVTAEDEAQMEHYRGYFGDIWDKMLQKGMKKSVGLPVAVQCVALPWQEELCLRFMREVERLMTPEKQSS
Protocol: A. Transfection of Cells with Human FAAH
A 10-cm tissue culture dish with a confluent monolayer of SK-N-MC cells was split 2 days (d) prior to transfection. Using sterile technique, the media was removed and the cells were detached from the dish by the addition of trypsin. One fifth of the cells were then placed onto a new 10-cm dish. Cells were grown in a 37° C. incubator with 5% CO2 in Minimal Essential Media Eagle with 10% Fetal Bovine Serum. After 2 d, cells were approximately 80% confluent. These cells were removed from the dish with trypsin and pelleted in a clinical centrifuge. The pellet was re-suspended in 400 μL complete media and transferred to an electroporation cuvette with a 0.4 cm gap between the electrodes. Supercoiled human FAAH cDNA (1 μg) was added to the cells and mixed. The voltage for the electroporation was set at 0.25 kV, and the capacitance was set at 960 μF. After electroporation, the cells were diluted into complete media (10 mL) and plated onto four 10-cm dishes. Because of the variability in the efficiency of electroporation, four different concentrations of cells were plated. The ratios used were 1:20, 1:10, and 1:5, with the remainder of the cells being added to the fourth dish. The cells were allowed to recover for 24 h before adding the selection media (complete media with 600 μg/mL G418). After 10 d, dishes were analyzed for surviving colonies of cells. Dishes with well-isolated colonies were used. Cells from individual colonies were isolated and tested.
The assay mixture consisted of […] of the cell homogenate, 10 μL of the test compound, and 40 μL of anandamide [1-^3H-ethanolamine] (3H-AEA, Perkin-Elmer, 10.3 Ci/mmol), which was added last, for a final tracer concentration of 80 nM. The reaction mixture was incubated at rt for 1 h. During the incubation, 96-well Multiscreen filter plates (catalog number MAFCNOB50; Millipore, Bedford, Mass., USA) were loaded with 25 μL of activated charcoal (Multiscreen column loader, catalog number MACL09625, Millipore) and washed once with 100 μL of MeOH. Also during the incubation, 96-well DYNEX MicroLite plates (catalog number NL510410) were loaded with 100 μL of MicroScint40 (catalog number 6013641, Packard Bioscience, Meriden, Conn., USA). After the 1 h incubation, 60 μL of the reaction mixture were transferred to the charcoal plates, which were then assembled on top of the DYNEX plates using Centrifuge Alignment Frames (catalog number MACF09604, Millipore). The unbound labeled ethanolamine was centrifuged through to the bottom plate (5 min at 2000 rpm), which was preloaded with the scintillant, as described above. The plates were sealed and left at rt for 1 h before counting on a Hewlett Packard TopCount.

[3] = human FAAH, T84 or transfected SK-N-MC cell homogenate, 3H-AEA tracer 80 nM, rt 1 h, pH 9, read-out: Assay 1 IC50

IC50 [1]	IC50 [2, 3]	Compound	IC50 [2]
27 nM	1.8 nM	CC(C)(C)OC(=O)N1CCC(CCCC(=O)c2ncco2)CC1 [Example 1, 4-(4-Oxazol-2-yl-4-oxo-butyl)-piperidine-1-carboxylic acid tert-butyl ester]	–
900 nM	315 nM	O=C(CCCC1CCN(Cc2ccccc2)CC1)c1ncco1 [Example 3, 4-(1-Benzyl-piperidin-4-yl)-1-oxazol-2-yl-butan-1-one]	–
–	3000 nM	O=C(CCCC1CCN(Cc2ccccn2)CC1)c1ncco1 [Example 4, 1-Oxazol-2-yl-4-(1-pyridin-2-ylmethyl-piperidin-4-yl)-butan-1-one]	–
3000 nM	1200 nM	O=C(CCCC1CCN(Cc2cccnc2)CC1)c1ncco1 [Example 5, 1-Oxazol-2-yl-4-(1-pyridin-3-ylmethyl-piperidin-4-yl)-butan-1-one]	–
550 nM	359 nM	O=C(CCCC1CCN(Cc2ccncc2)CC1)c1ncco1 [Example 6, 1-Oxazol-2-yl-4-(1-pyridin-4-ylmethyl-piperidin-4-yl)-butan-1-one]	–
1000 nM	850 nM	O=C(CCCC1CCN(Cc2ccc(F)cc2)CC1)c1ncco1 [Example 7, 4-[1-(4-Fluoro-benzyl)-piperidin-4-yl]-1-oxazol-2-yl-butan-1-one]	–
350 nM	100 nM	O=C(CCCC1CCN(Cc2cccc(F)c2)CC1)c1ncco1 [Example 8, 4-[1-(3-Fluoro-benzyl)-piperidin-4-yl]-1-oxazol-2-yl-butan-1-one]	–
95 nM	36 nM	O=C(CCCC1CCN(Cc2ccc(Br)c(Br)c2)CC1)c1ncco1 [Example 11, 4-[1-(3,4-Dibromo-benzyl)-piperidin-4-yl]-1-oxazol-2-yl-butan-1-one]	–
70 nM	50 nM	O=C(CCCC1CCN(Cc2ccc(Cl)c(Cl)c2)CC1)c1ncco1 [Example 12, 4-[1-(3,4-Dichloro-benzyl)-piperidin-4-yl]-1-oxazol-2-yl-butan-1-one]	–
180 nM	50 nM	O=C(CCCC1CCN(Cc2ccc(F)c(Cl)c2)CC1)c1ncco1 [Example 13, 4-[1-(3-Chloro-4-fluoro-benzyl)-piperidin-4-yl]-1-oxazol-2-yl-butan-1-one]	–
1000 nM	86 nM	O=C(CCCC1CCN(Cc2ccc3c(c2)OCO3)CC1)c1ncco1 [Example 14, 4-(1-Benzo[1,3]dioxol-5-ylmethyl-Piperidin-4-yl)-1-oxazol-2-yl-butan-1-one]	–
2.4 nM	4 nM	O=C(CCCC1CCN(Cc2ccc(Oc3ccccc3)cc2)CC1)c1ncco1 [Example 15, 1-Oxazol-2-yl-4-[1-(4-phenoxy-benzyl)-piperidin-4-yl]-butan-1-one]	–
308 nM	36 nM	COc1cccc(CN2CCC(CCCC(=O)c3ncco3)CC2)c1 [Example 17, 4-[1-(3-Methoxy-benzyl)-piperidin-4-yl]-1-oxazol-2-yl-butan-1-one]	–
–	4000 nM	Cc1cc(CC(=O)N2CCC(CCCC(=O)c3ncco3)CC2)on1 [Example 43, 4-{1-[2-(3-Methyl-isoxazol-5-yl)-acetyl]-piperidin-4-yl}-1-oxazol-2-yl-butan-1-one]	–
–	9500 nM	O=C(CCCC1CCN(CC2CCCCC2)CC1)c1ncco1 [Example 86, 4-(1-Cyclohexylmethyl-piperidin-4-yl)-1-oxazol-2-yl-butan-1-one]	–
1200 nM	–	O=C(CCCC1CCN(CCc2ccccc2)CC1)c1ncco1 [Example 95, 1-Oxazol-2-yl-4-(1-phenethyl-piperidin-4-yl)-butan-1-one]	–
–	2000 nM	O=C(CCCC1CCN(Cc2ccc(N3CCOCC3)cc2)CC1)c1ncco1 [Example 106, 4-[1-(4-Morpholin-4-yl-benzyl)-piperidin-4-yl]-1-oxazol-2-yl-butan-1-one]	–

Compound	IC50 [1]	IC50 [2, 3]	IC50 [2]
O=C(CCCC1CCN(Cc2cccc(Oc3ccccc3)c2)CC1)c1ncco1 [Example 2, 1-Oxazol-2-yl-4-[1-(3-phenoxy-benzyl)-piperidin-4-yl]-butan-1-one]	4.7 nM	0.4 nM	–
O=C(CCCC1CCN(Cc2ccc(Cl)cc2)CC1)c1ncco1 [Example 9, 4-[1-(4-Chloro-benzyl)-piperidin-4-yl]-1-oxazol-2-yl-butan-1-one]	354 nM	66 nM	–
O=C(CCCC1CCN(Cc2cccc(Cl)c2)CC1)c1ncco1 [Example 10, 4-[1-(3-Chloro-benzyl)-piperidin-4-yl]-1-oxazol-2-yl-butan-1-one]	80 nM	60 nM	–
COc1ccc(CN2CCC(CCCC(=O)c3ncco3)CC2)cc1 [Example 16, 4-[1-(4-Methoxy-benzyl)-piperidin-4-yl]-1-oxazol-2-yl-butan-1-one]	663 nM	–	132 nM
COc1ccccc1CN1CCC(CCCC(=O)c2ncco2)CC1 [Example 87, 4-[1-(2-Methoxy-benzyl)-piperidin-4-yl]-1-oxazol-2-yl-butan-1-one]	–	4000 nM	–

From patent US20090111778A1, “2-Keto-Oxazoles as Modulators of Fatty Acid Amide Hydrolase” (priority 2005, published 2009)
